The source of these data is patent US20120157519A1 (priority 2009, published 2012).

Data set [1] has as its system H1N1 influenza virus. Also on record: species or system BALB/c mice. The conditions noted are these: mouse, in vivo.
The test system of data set [2] is 721.221 target cells. Type of data set: cell-based. Conditions: effector cells pre-incubated 24 hours with AS101; high concentrations less effective than moderate.
The subject of data set [3] is INFγ. Type of data set: in vivo, mice. Conditions: treated 24 hours before infection, six days after infection.
In data set [4] the test system is MDCK cells.
In data set [5] the test system is mouse cytomegalovirus (MCMV). The conditions noted are these: Sredni et al., Immunol Lett 1994; cited from earlier work.
In data set [6] the test system is YTS cells. Type of data set: cell-based.
Data set [7] concerns H5N1 influenza virus. Set-up: species or system BALB/c mice. The conditions noted are these: mouse, in vivo.
Data set [8] deals with human immunodeficiency virus type 1 (HIV-1). The conditions noted are these: Vonsover et al., AIDS Res Hum Retroviruses 1992; cited from earlier work.
In data set [9] the test system is phosphorylated Akt (PI3k-Akt signaling). Type of data set: cell-based, canine.
Data set [10] relates to primary NK cells. Type of data set: cell-based. The conditions noted are these: 24 hours incubation, 0.1-5 μg/ml, supernatant ELISA. (In general: In an ELISA, binding on a coated surface is turned into a signal by an enzyme label.)
Data set [11] concerns H5N1 virus. Type of data set: cell-based.
The test system of data set [12] is H1N1 (swine) influenza virus. Type of data set: cell-based, swine influenza H1N1v virus.

`CCOC(=O)C1=C[C@@H](OC(CC)CC)[C@H](NC(C)=O)[C@@H](N)C1` [oseltamivir, reference compound]: the “H1N1 virus in infected mice (lung titer, real-time RT-PCR)” value in data set [1] is listed as “Inhibition”.

Turning to `Cl[TeH]1(Cl)(Cl)OCCO1` [AS101, ammonium trichloro(dioxyethylene-O,O′)tellurate], the “NK killing of target cells” value in data set [2] is “increased NK killing”. The “interferon secretion in lungs of H5N1 infected mice” value in data set [3] is “restored interferon secretion to the levels observed in uninfected mice”. Also, the “toxicity to the cells (MTT)” value in data set [4] is “not toxic”. In addition, the “effect against mouse cytomegalovirus (MCMV)” value in data set [5] is given as “inhibitory effect”. In addition, in [6], the “AS101 concentration at which the effect on IFN-γ secretion decreased” value is on record as “above 1 μg/ml” and the “IFN-γ secretion by YTS cells” value is “increased secretion”. Moreover, in [7], the “H5N1 virus in infected mice (lung titer, real-time RT-PCR)” value is reported as “significant inhibition” and the “H5N1 virus titers in the lungs, each tested administration time” value was “significantly reduced”. Moreover, in [7] (ip), the “body weight loss after infection” value was “weight loss was reduced somewhat”. Further, the “effect against human immunodeficiency virus type 1 (HIV-1)” value in [8] was “inhibitory effect”. In data set [1], the “H1N1 virus in infected mice (lung titer, real-time RT-PCR)” value is “significant inhibition” and the “H1N1 virus titers in the lungs, each tested administration time” value is on record as “significantly reduced”. In addition, the “level of phosphorylated Akt, AS101 treatment alone” value in data set [9] is given as “increased”. Also, the “level of phosphorylated Akt, cells infected with H5N1 virus” value in data set [9] (MDCK cells, 2 μg/ml, 10^2×TCID50 H5N1, 24 hours) is “dramatically reduced levels”. Moreover, the “IFN-γ secretion by primary NK cells” value in data set [10] is “increased secretion”. Moreover, the “protection of cells from viral infection by supernatant of treated cells” value in data set [11] is “can protect cells from viral infection”. In data set [12], the “H1N1 virus infection, administered concomitantly with the virus” value is reported as “strongest inhibition”; the “H1N1 virus infection, each tested administration time” value is “inhibition”; the “replication of H1N1 influenza virus (viral titer by ELISA)” value was “significant inhibition”.
